Measurements taken from patent US9707239B2, “Compounds that modulate oxidative stress” (vTv Therapeutics LLC, priority 2011, dated 2017).
“Also recorded” adds a separate entry of the source.

Assays:
Keap1 = assay: HMOX1 induction after Keap1 silencing (shRNA); format: cell-based, human; settings: NHLF cells, FIG. 6
Description: Normal human lung fibroblasts were plated in a 12-well tissue culture dish at 16,000 cells/well and allowed to attach overnight. Regular medium was then replaced with 200 μl of fresh growth medium containing 8 μg/ml hexadimethrine bromide (polybrene). Lentiviral transduction particles were then added in the following amounts: Control shRNA (1.1×10^7 TU/ml, Sigma, cat# SHC002V), 15 μl for an MOI of 10; KEAP-1 shRNA (6.3×10^6 TU/ml, Sigma, cat# SHCLNV-TRCN0000046092), 63 μl for an MOI of 20. After 4 hours in the cell culture incubator, another 200 μl of growth medium was added on top of the original volume. Cells were replenished the next day with fresh complete growth medium and were allowed to recover for 24 hours, after which selection medium was applied (complete medium with 1 μg/ml puromycin).
Another method of testing the role of the Nrf2 regulatory pathway on compound activity is to determine the effect of silencing Keap1 on HMOX1 gene expression. It is known that deleting Keap1 will result in the induction of Nrf2 dependent genes but not, to any significant degree, HMOX1. The proposed explanation for this observation is that HMOX1 requires the concomitant derepression of Bach1 activity and that this event is more dependent on active processes (e.g., heme binding, changes in redox potential of the cell, phosphorylation of Bach1, etc.). We therefore tested the ability of Compound 13 and tool compounds to induce HMOX1 in the presence of silencing of Keap1 in normal human lung fibroblasts.
Normal human lung fibroblasts were tested with DMSO, CoPP, Compound 13, and two derivatives including Compound 4 and Compound 8. An electrophile, Compound 1, was also included in the test set. […] On the other hand, induction of HMOX1 by the electrophile Compound 1 was inhibited.

NQO1 = assay: mRNA expression (Quantigene Plex) in NHLF cells: NQO1; format: cell-based, human; settings: Table 6, 6 h, mRNA normalized to GAPDH, above DMSO treated cells
Description: (§1) Secondary growth of NHLF cells were used for all assays. Cell were thawed and then placed into culture in T225 flasks. The cells were grown to 80% confluency and harvested by washing once with HEPES buffered saline solution and then trypsinizing. Equal numbers (7×10^3 cells per well) of NHLF cells were plated in 96 well tissue culture plates (Corning). Cells were incubated overnight in FGM-2 medium prior to exposure to compound. Cells were treated with either DMSO or a compound as described below for 6 h. Preparation of cell lysates was carried out according to instructions using the Quantigene Reagent system 2.0 protocol (Panomics). mRNA induction was detected from cell lysate using the Quantigene Plex 2.0 Assay Kit (Panomics) on the Luminex platform (BIO-RAD). Expression of GAPDH mRNA was used as the internal control for the Quantigen Plex 2.0 Assay. The data in Tables 5 and 6 represents the fold change of target mRNA expression, normalized to control values, above DMSO treated cells.

HSPA6 = assay: mRNA expression (Quantigene Plex) in NHLF cells: HSPA6; format: cell-based, human; settings: Table 6, 6 h, mRNA normalized to GAPDH, above DMSO treated cells
Description: as §1

TXNRD1 = assay: mRNA expression (Quantigene Plex) in NHLF cells: TXNRD1; format: cell-based, human; settings: Table 6, 6 h, mRNA normalized to GAPDH, above DMSO treated cells
Description: as §1

HMOX1 [1] = assay: mRNA expression (Quantigene Plex) in NHLF cells: HMOX1; format: cell-based, human; settings: Table 6, 6 h, mRNA normalized to GAPDH, above DMSO treated cells
Description: as §1

GADD45A = assay: mRNA expression (Quantigene Plex) in NHLF cells: GADD45A; format: cell-based, human; settings: Table 6, 6 h, mRNA normalized to GAPDH, above DMSO treated cells
Description: as §1

NHLF cells [2] = assay: ROS measurements (H2DCF-DA imaging); format: cell-based, human; settings: 1 hr; for ROS production (in words): cell-by-cell imaging, FIG. 3A/3B; for elevation of ROS production: relative to untreated controls, FIG. 3A
Description: Secondary growth of NHLF cells were used for all assays. Cells were cultured as above. Cells were plated into 384-well BD-Optilux Plates at 2,000 cells/well and cultured overnight at 37° C. and 5% CO2. The following day, cell were washed and 2,7-dihydrodichlorofluorescin diacetate (H2DCF-DA), 10 μM ferric ammonium citrate (FAC), and Hoechst stain were added to cells for 30 min. The cells were washed once with PBS to remove any H2DCF-DA not taken up by cells. Test compounds were prepared in FBM-2 media at the desired concentrations. The plates and stain-treated cells were incubated with test compounds for 1 hr at 37° C. and 5% CO2. Following the incubation period, ROS generation was determined by imaging the cells on a GE INcell 1000 imager (Hoechst Ex. 360 Em. 535; H2DCF-DA 488 Ex. 480 Em. 535). ROS levels were determined and quantified using GE IN Cell Analyzer Software.
In addition to gene profiling, the requirement for ROS generation or chemical reactivity was tested. ROS generation was measured using an automated imaging technique. Compound 13 as well as two other compounds that were found in the screening set were tested in this experiment. Untreated NHLF cells, NHLF cells treated with the HMOX1 inducer CoPP (a negative control), and NHLF cells treated with curcumin or celestrol (positive controls) were included as controls. […] Further experiments were also conducted on chemical derivatives of Compound 13. In those experiments, all compounds tested were found not to induce an elevation of ROS levels in the cell (FIG. 3B). Thus, Compound 13 and related compounds represent a class of agents that elevate HMOX1 production without elevating ROS production.

ICAM = assay: mRNA expression (Quantigene Plex) in NHLF cells: ICAM; format: cell-based, human; settings: Table 6, 6 h, mRNA normalized to GAPDH, above DMSO treated cells
Description: as §1

NHLF cells [3] = assay: Cytoprotection of cisplatin (CDDP)-treated NHLF cells (propidium iodide staining); format: cell-based
Description: (§2) A key outcome of Bach1 derepression and Nrf2 activation are the induction of cytoprotective genes. A method to test such cytoprotection is to assess the ability of a compound to protect normal human cells such as lung fibroblasts from toxicity due to cisplatin exposure. A model of cellular cytoprotection was established whereby normal human lung fibroblasts were treated with Bach1 modulators and then subsequently exposed to cisplatin. NHLF cells are very sensitive to cisplatin exposure; following a dose of 200 uM cisplatin, >90% of NHLF cells are propidium iodide positive, a measure of cell death.

HMOX1 [4] = assay: HMOX1 induction in NHLF cells in the cisplatin cytoprotection model; format: cell-based, human; settings: compound 24 hours prior to cisplatin, FIG. 8
Description: as §2

HMOX1 [5] = assay: Effect of NAC on compound induction of HMOX gene expression; format: cell-based, human; settings: NHLF cells pretreated with 5 mM NAC 1 hr, compound 6 h, FIG. 4
Description: NHLF cells were grown to 80% confluency and harvested by washing once with HEPES and then trypsinizing. Equal numbers (7×10^4 cells per well) of NHLF cells were plated in 96 well tissue culture (Corning) plates. Cells were incubated overnight in FGM-2 medium prior to exposure to compound. Cells were pretreated with 5 mM N-acetyl cysteine for 1 hr. Cells were treated with either DMSO or compound for 6 h. Preparation of cell lysates was carried out according to Quantigene Reagent system 2.0 protocol (Panomics). Heme oxygenase mRNA induction was detected from cell lysate using the Quantigene Plex 2.0 Assay Kit (Panomics) on the Luminex platform (BIO-RAD). Expression of GAPDH mRNA was used as the internal control for the Quantigen Plex 2.0 Assay. Heme oxygenase data represents the fold change, normalized to control values, above DMSO treated cells.
A further test of the hypothesis that Compound 13 induces HMOX1 with minimal alteration of cellular redox levels or chemical reactivity was carried out by treating cells with N-acetyl cysteine (NAC). This compound acts to restore cellular glutathione levels and thus prevent oxidative stress. The degree to which NAC can suppress HMOX1 induction is an indicator of the amount of chemical reactivity or ROS stress that a compound is imposing on the cell and thus activating phase II gene transcription. […] Coupled with the data shown in FIG. 3, it is concluded that Compound 13 induces HMOX1 with minimal elevation of ROS or NAC-sensitive chemical reactivity.

Structure (SMILES)	NQO1 (fold induction) (NQO1)	HSPA6 (fold induction) (HSPA6)	TXNRD1 (fold induction) (TXNRD1)	HMOX1 (fold induction) (HMOX1 [1])	GADD45A (fold induction) (GADD45A)	ROS production (in words) (NHLF cells [2])	ICAM1 (fold induction) (ICAM)	further results
CCOC(=O)/C=C/c1cnc2ccccc2c1S(=O)(=O)C1CCOC1C (stereo not drawn) [Compound 1, (E)-3-[4-(2-Methyl-tetrahydro-furan-3-sulfonyl)-quinolin-3-yl]-acrylic acid ethyl ester]								HMOX1 induction in the presence of Keap1 silencing (Keap1): inhibited
CC1OCCC1S(=O)(=O)c1c(-c2ccc(C(F)(F)F)cc2)cnc2ccccc12 (stereo not drawn) [Compound 3, 4-(2-Methyl-tetrahydro-furan-3-sulfonyl)-3-(4-trifluoromethyl-phenyl)-quinoline]	1.69	2.71	1.47	45.17	1.37	no demonstrable increase in ROS production	1.47	
COC(=O)c1ccc2[nH]c(Nc3nc4ccccc4s3)nc2c1 [Compound 4, 2-(Benzothiazol-2-ylamino)-1H-benzoimidazole-5-carboxylic acid methyl ester]	1.85	1.08	1.74	56.15	2.00	no demonstrable increase in ROS production	0.77	HMOX1 induction in the presence of Keap1 silencing (Keap1): unaffected in their ability to induce HMOX1 in the presence of Keap1 silencing; also recorded: behaves similarly to CoPP induction
COC(=O)[C@]12CCC(C)(C)CC1C1C(=O)C=C3[C@@]4(C)CC(C#N)C(=O)C(C)(C)[C@@H]4CC[C@@]3(C)[C@]1(C)CC2 (stereo partly drawn) [Compound 5, (4aS,6aR,6bS,8aR,12aS)-11-Cyano-2,2,6a,6b,9,9,12a-heptamethyl-10,14-dioxo-1,3,4,5,6,6a,6b,7,8,8a,9,10,11,12,12a,14, 14a,14b-octadecahydro-2H-picene-4a-carboxylic acid methyl ester, reference compound]	2.01	1.60	1.83	23.97	0.89	no demonstrable increase in ROS production	1.16	
Cc1nc(Nc2nc3cc(C(=O)NCCOCCN)ccc3[nH]2)sc1C [Compound 11, 2-(4,5-Dimethyl-thiazol-2-ylamino)-1H-benzoimidazole-5-carboxylic acid [2-(2-amino-ethoxy)-ethyl]-amide]								protection against cisplatin toxicity (NHLF cells [3]; NHLF cells, compound 24 hours prior to cisplatin exposure, FIG. 8): failed to protect NHLF cells against cisplatin toxicity; also recorded: failed to protect cells from CDDP-mediated cytotoxicity; HMOX1 induction (HMOX1 [4]): inactive HMOX1 inducers; also recorded: did not induce HMOX1
CC1=C(O)C(=O)C=C2C1=CC=C1[C@@]2(C)CC[C@@]2(C)[C@@H]3C[C@](C)(C(=O)O)CC[C@]3(C)CC[C@]12C [celestrol, reference compound]								effect of N-acetyl cysteine (NAC) on HMOX1 induction (HMOX1 [5]): inhibited nearly fully by NAC; also recorded: fully suppressed in the presence of NAC; elevation of ROS production (NHLF cells [2]): ~2 fold
N.N.[Cl][Pt][Cl] [cisplatin, reference compound]								NHLF cells propidium iodide positive (cell death) (NHLF cells [3]; 200 uM cisplatin): > 90%
COc1cc(/C=C/C(=O)CC(=O)/C=C/c2ccc(O)c(OC)c2)ccc1O [curcumin, reference compound]								effect of N-acetyl cysteine (NAC) on HMOX1 induction (HMOX1 [5]): inhibited nearly fully by NAC; also recorded: fully suppressed in the presence of NAC; elevation of ROS production (NHLF cells [2]): approximately 3 fold
